In patent US9789111B2, “Casein kinase 1δ (CK 1δ) inhibitors” (Electrophoretics Limited, priority 2010, dated 2017):

Legend:
CLK2 = CLK2 (Homo sapiens, UniProt P49760); assay: kinase inhibition assay panel; format: biochemical
FGFR1 = FGFR1 (Homo sapiens, UniProt P11362); assay: kinase inhibition assay panel; format: biochemical
CK1δ = molecular target: T1, CK1δ (Homo sapiens, UniProt P48730); assay: CK1δ inhibition assay (33P-ATP, CK1tide substrate); format: biochemical; conditions: range of kinase inhibition assays
T1 construct: Recombinant human full-length construct; GST; host or cells: insect cells
T1 sequence (P48730 1-409 isoform P48730-2): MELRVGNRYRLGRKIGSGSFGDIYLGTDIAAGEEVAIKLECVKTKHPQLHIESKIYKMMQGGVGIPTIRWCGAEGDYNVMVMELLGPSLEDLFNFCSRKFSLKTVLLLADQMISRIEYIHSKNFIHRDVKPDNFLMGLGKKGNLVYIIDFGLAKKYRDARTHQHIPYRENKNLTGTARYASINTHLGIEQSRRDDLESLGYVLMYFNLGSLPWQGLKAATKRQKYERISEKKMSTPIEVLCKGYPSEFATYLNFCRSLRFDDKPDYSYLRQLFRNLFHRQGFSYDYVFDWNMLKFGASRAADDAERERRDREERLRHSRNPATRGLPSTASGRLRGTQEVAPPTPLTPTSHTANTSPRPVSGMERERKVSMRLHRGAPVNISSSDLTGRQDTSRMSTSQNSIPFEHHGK
Experimental: The compounds of the invention may be tested for inhibition of casein kinase 1 delta (CK1δ) in accordance with the assay protocols described in US 2010/0152157, EP 1,636,375 or Hanger et al (2007) J. Biol. Chem. 282, 23645-23654. In particular, the assay was conducted in accordance with the following protocol:
(§1) Base Reaction buffer; 20 mM Hepes (pH 7.5), 10 mM MgCl2, 1 mM EGTA, 0.02% Brij35, 0.02 mg/ml BSA, 0.1 mM Na3VO4, 2 mM DTT, 1% DMSO
(§2) It should be noted that required cofactors are added individually to each kinase reaction.
(§3) • 1. Prepare indicated substrate in freshly prepared Base Reaction Buffer as described above • 2. Deliver any required cofactors to the substrate solution • 3. Deliver indicated kinase into the substrate solution and gently mix • 4. Deliver compounds in DMSO into the kinase reaction mixture • 5. Deliver ^33P-ATP (specific activity 0.01 μCi/μl final) into the reaction mixture to initiate the reaction • 6. Incubate kinase reaction for 120 min. at room temperature • 7. Reactions are spotted onto P81 ion exchange paper (Whatman #3698-915) • 8. Wash filters extensively in 0.75% Phosphoric acid Kinase Information: • CK1δ—Genbank Accession # NP_620693 • Recombinant human full-length construct. GST-tagged, expressed in insect cells. • Final concentration in assay=4 nM • Substrate: CK1tide • Substrate sequence: [KRRRAL[pS]VASLPGL] • Final substrate concentration in assay=20 μM • It should be noted that no additional cofactors are added to the reaction mixture.

CK1g1 = CK1g1 (Homo sapiens, UniProt Q9HCP0); assay: kinase inhibition assay panel; format: biochemical
PKCb2 = PKCb2 (Homo sapiens, UniProt P05771); assay: kinase inhibition assay panel; format: biochemical
Experimental: as §1, §2, §3

CDK5/p25 = CDK5/p25 (Homo sapiens, UniProt Q00535); assay: kinase inhibition assay panel; format: biochemical
CDK5/p25, sequence (Q00535 whole entry, species assumed): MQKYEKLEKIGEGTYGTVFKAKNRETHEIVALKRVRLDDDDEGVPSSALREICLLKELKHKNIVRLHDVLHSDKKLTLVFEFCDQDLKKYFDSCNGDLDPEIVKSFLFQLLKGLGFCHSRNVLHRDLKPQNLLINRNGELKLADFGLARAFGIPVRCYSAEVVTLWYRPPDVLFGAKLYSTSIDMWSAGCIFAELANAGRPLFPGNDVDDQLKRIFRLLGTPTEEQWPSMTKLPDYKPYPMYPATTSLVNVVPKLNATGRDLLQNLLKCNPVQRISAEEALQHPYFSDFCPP
CDK5/p25, sequence (Q15078 99-307 partner limits assumed, species assumed): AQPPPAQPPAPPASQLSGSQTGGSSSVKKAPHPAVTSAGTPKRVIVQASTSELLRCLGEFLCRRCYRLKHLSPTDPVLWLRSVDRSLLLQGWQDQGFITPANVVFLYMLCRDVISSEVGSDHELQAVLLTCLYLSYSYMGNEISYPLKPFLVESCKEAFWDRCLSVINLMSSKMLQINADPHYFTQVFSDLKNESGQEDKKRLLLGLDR
Experimental: as §1, §2, §3

ABL2/ARG = ABL2/ARG (Homo sapiens, UniProt P42684); assay: kinase inhibition assay panel; format: biochemical
ABL2/ARG, sequence (P42684 whole entry): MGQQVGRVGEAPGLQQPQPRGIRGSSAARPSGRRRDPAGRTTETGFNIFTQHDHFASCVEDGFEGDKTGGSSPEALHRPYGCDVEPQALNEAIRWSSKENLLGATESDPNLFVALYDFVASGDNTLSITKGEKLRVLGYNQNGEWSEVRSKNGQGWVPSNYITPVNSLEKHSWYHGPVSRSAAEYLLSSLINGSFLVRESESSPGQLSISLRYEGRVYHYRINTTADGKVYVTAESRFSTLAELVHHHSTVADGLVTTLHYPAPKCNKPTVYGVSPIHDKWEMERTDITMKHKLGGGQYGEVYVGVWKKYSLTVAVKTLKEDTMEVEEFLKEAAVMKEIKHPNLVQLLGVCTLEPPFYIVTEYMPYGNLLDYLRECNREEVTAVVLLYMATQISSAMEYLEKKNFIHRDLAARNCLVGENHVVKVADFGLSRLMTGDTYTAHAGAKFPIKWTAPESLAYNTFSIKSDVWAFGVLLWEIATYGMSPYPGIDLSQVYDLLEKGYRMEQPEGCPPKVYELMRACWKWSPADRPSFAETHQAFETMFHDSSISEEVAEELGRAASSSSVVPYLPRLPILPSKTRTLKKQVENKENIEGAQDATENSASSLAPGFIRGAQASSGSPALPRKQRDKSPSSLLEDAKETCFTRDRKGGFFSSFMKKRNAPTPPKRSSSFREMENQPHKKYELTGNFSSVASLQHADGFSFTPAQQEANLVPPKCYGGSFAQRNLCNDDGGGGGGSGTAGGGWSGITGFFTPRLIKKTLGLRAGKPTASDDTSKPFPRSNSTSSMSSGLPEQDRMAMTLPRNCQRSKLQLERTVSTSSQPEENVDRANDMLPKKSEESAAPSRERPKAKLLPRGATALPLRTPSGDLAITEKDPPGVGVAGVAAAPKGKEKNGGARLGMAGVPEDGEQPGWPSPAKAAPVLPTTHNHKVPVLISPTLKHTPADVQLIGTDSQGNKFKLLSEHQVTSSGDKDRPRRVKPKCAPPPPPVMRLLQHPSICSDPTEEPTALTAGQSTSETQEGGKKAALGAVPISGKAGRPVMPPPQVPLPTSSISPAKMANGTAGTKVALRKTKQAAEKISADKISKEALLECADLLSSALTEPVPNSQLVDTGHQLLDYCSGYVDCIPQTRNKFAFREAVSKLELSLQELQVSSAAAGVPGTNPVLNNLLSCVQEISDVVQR
Experimental: as §1, §2, §3

PIM3 = PIM3 (Homo sapiens, UniProt Q86V86); assay: kinase inhibition assay panel; format: biochemical
Experimental: as §1, §2, §3

ROCK1 = ROCK1 (Homo sapiens, UniProt Q13464); assay: kinase inhibition assay panel; format: biochemical
ROCK1, sequence (Q13464 whole entry, species assumed): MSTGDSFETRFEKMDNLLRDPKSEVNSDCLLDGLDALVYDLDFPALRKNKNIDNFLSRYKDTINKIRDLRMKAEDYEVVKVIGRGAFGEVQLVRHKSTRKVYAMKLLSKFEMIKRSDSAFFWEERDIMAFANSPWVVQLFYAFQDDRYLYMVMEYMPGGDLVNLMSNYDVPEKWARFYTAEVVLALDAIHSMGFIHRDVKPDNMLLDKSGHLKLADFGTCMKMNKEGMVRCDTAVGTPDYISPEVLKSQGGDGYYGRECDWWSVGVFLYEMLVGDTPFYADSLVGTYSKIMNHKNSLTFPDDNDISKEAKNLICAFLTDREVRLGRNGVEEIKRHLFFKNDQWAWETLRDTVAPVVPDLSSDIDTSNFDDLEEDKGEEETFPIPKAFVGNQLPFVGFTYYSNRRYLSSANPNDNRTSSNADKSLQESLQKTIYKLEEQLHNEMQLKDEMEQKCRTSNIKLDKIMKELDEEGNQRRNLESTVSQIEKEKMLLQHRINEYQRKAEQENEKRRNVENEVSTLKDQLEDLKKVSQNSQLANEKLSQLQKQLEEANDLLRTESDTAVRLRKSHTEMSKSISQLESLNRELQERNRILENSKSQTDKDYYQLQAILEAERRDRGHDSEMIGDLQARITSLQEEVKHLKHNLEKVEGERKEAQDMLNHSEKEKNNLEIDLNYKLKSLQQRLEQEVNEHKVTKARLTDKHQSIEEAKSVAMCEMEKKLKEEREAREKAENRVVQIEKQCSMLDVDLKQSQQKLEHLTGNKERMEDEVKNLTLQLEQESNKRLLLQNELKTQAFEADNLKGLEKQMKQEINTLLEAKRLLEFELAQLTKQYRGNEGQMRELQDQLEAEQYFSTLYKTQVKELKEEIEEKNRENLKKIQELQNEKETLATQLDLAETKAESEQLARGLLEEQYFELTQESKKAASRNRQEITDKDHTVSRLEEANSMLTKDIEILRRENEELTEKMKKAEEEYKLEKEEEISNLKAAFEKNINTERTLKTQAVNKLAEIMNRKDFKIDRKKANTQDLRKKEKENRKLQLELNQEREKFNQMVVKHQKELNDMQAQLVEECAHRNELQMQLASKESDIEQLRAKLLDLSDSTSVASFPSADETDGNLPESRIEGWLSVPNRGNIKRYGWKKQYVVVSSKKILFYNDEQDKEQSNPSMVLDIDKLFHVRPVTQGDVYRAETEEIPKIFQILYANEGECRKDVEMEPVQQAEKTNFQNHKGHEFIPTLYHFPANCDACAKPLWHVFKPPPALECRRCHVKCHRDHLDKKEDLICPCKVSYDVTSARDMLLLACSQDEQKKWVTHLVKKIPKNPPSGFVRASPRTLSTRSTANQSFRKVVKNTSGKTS
Experimental: as §1, §2, §3

HGK/MAP4K4 = HGK/MAP4K4 (Homo sapiens, UniProt O95819); assay: kinase inhibition assay panel; format: biochemical
Experimental: as §1, §2, §3

LCK = LCK (Homo sapiens, UniProt P06239); assay: kinase inhibition assay panel; format: biochemical
LCK, sequence (P06239 whole entry, species assumed): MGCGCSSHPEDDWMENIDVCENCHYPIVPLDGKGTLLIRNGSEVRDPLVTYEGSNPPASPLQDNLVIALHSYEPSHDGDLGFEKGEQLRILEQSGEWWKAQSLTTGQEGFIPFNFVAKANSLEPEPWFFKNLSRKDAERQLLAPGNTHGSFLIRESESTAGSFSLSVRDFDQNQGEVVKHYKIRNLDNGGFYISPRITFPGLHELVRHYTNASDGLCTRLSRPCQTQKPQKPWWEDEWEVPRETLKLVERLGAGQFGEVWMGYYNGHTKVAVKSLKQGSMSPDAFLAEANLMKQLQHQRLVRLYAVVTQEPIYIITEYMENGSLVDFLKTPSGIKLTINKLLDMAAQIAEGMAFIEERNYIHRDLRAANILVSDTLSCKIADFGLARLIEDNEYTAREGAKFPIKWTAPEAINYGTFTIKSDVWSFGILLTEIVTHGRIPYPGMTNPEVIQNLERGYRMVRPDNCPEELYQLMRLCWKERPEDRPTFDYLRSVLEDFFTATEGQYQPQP
Experimental: as §1, §2, §3

c-SRC = c-SRC (Homo sapiens, UniProt P12931); assay: kinase inhibition assay panel; format: biochemical
Experimental: as §1, §2, §3

KDR/VEGFR2 = KDR/VEGFR2 (Homo sapiens, UniProt P35968); assay: kinase inhibition assay panel; format: biochemical
Experimental: as §1, §2, §3

MSK1/RPS6KA5 = MSK1/RPS6KA5 (Homo sapiens, UniProt O75582); assay: kinase inhibition assay panel; format: biochemical
Experimental: as §1, §2, §3

PKCa = PKCa (Homo sapiens, UniProt P17252); assay: kinase inhibition assay panel; format: biochemical
Experimental: as §1, §2, §3

PDK1/PDPK1 = molecular target: T2, PDK1/PDPK1 (Homo sapiens, UniProt O15530); assay: kinase inhibition assay panel; format: biochemical
T2 sequence (O15530 1-556): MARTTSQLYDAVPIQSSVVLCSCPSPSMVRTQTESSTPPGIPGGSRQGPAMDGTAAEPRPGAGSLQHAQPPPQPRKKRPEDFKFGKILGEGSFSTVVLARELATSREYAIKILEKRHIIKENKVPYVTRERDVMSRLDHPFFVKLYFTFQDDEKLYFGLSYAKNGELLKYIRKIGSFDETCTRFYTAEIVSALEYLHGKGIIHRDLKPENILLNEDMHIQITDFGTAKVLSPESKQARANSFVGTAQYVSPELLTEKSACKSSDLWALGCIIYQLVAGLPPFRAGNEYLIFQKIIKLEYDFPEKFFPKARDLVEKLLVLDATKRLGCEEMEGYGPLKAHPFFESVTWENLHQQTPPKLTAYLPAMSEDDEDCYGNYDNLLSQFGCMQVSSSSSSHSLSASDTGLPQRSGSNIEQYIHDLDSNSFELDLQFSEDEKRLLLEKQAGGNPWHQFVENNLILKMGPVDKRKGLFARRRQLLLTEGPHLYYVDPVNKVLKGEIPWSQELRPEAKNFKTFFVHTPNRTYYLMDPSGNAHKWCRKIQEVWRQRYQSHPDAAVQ
Experimental: as §1, §2, §3

GSK3b = GSK3b (Homo sapiens, UniProt P49841); assay: kinase inhibition assay panel; format: biochemical
GSK3b, sequence (P49841 whole entry, species assumed): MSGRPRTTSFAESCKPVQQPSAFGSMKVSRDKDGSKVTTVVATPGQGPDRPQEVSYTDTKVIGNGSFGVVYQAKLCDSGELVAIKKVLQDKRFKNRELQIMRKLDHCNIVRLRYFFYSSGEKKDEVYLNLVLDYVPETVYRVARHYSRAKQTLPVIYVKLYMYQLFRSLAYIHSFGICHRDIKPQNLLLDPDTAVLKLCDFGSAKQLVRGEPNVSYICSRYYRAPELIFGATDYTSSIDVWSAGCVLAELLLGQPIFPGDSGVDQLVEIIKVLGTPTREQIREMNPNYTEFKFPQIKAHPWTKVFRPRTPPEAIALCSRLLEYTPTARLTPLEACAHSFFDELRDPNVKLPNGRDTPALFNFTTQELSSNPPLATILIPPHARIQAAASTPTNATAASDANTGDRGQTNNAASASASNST
Experimental: as §1, §2, §3

CK1g2 = CK1g2 (Homo sapiens, UniProt P78368); assay: kinase inhibition assay panel; format: biochemical
[1] = tested on: Tau phosphorylation at key pathogenic sites in SH-SY5Y-TMHT cells; conditions: SH-SY5Y-TMHT cells exposed to kinase inhibitors; cited from earlier work
[2] = tested on: total Tau in SH-SY5Y-TMHT cells; assay: Western Blot of total Tau; format: cell-based, human; conditions: 5 μM
Experimental: (§4) SH-SY5Y-TMHT cells are kept in culture medium (DMEM medium, 10% FCS, 1% NEAA, 1% L-Glutamine, 100 μg/ml Gentamycin, 300 μg/ml Geneticin G-418) for 2 days until 80-90% confluency. Cells are then differentiated in culture medium supplemented with 10 μM retinoic acid (RA) for 7 days changing medium every 2 to 3 days. Differentiated cells are seeded onto 6-well plates and 96-well plates at a cell density of 1.25×10^6 and 8×10^5 cells per well, respectively. On day 8 post-differentiation, the test compounds, reference compounds and vehicle control were added to the culture medium. After 6 h of compound exposure one plate of cells is subjected to a MTT assay to evaluate the effect of test and reference items on cell viability. Remaining wells are washed once with cold PBS and harvested in 300 μl RIPA-Buffer [50 mM Tris pH 7.4, 1% Nonident P40, 0.25% Na-deoxy-cholate, 150 mM NaCl, 1 mM EDTA, 1 μM NaF, 1 μM Na-ortho-vanadate, 80 mM Glycerophosphate, supplemented with freshly added protease (Calbiochem) and phosphatase (Sigma) inhibitor cocktail]. The cell suspension is transferred into a 1.5 ml tube and additionally lysed by sonication on ice. An aliquot of 20 μl is taken for the determination of the protein concentration (BCA assay). Subsequently, the lysates are snap frozen and stored at −80° C. until shipment.
(§5) Lysates of treated cells were prepared in Laemmli buffer and 10 μg loaded into each lane of a 10% Nu-PAGE gel (Invitrogen, UK). Samples were run until the coomassie blue dye fromt was within 1 cm of the bottom of the gel. The separated proteins were transferred onto nitrocellulose and blots developed using antibodies specific for total tau (Polyclonal Rabbit Anti-Human Tau, Dako, UK (cat # A0024)) and phopho-Threonine 231 (Tau (Phospho-Thr231) Antibody, Signalway Antibody, USA (cat # 11110)) respectively. In each case the bound antibody was detected using ECL Rabbit IgG, HRP-Linked (from donkey) (GE Healthcare, UK (cat # NA934))

[3] = tested on: Tau phosphorylated at Threonine 231 in SH-SY5Y-TMHT cells; assay: Western Blot of Tau phosphorylated at Threonine 231; format: cell-based, human; conditions: 5 μM, Western Blot
Experimental: as §4, §5

SH-SY5Y-TMHT cells = assay: Cell viability, MTT assay; format: cell-based, human; conditions: 0.5 μM (tested 0.1 μM to 1 μM), 6 h of treatment
Experimental: as §4
To determine compound activity, it is necessary to control for potential cell toxicity of all molecules. Viability of cultures is determined by the MTT assay. This assay allows the measurement of the mitochondrial dehydrogenase activity which reduces yellow MTT to dark blue formazan crystals. Since this reaction is catalyzed in living cells only this assay is used for the determination of cell viability. MTT solution is added to each well in a final concentration of 0.5 mg/ml. After 2 hours, the MTT containing medium is aspired. Cells are lysed in 3% SDS and the formazan crystals are dissolved in isopropanol/HCl. Optical density is measured with a plate-reader at wavelength 570 nm. Cell survival rate is expressed as optical density (OD). Values are calculated as percent of control values.
Cell viability was determined in differentiated SH-SY5Y-TMHT cells by the MTT assay. Test and reference compounds were applied in a concentration range from 0.05 μM to 10 μM and from 0.1 μM to 1 μM, respectively. Upon 6 h of treatment, cell viability was evaluated. […] Statistical significance is indicated by *<0.05, **<0.01, ***<0.001 as determined by One-Way ANOVA. Data are shown from two independent experiments as group mean+/−SEM (n=8). […] Statistical significance is indicated by *<0.05, **<0.01, ***<0.001 as determined by One-Way ANOVA. […] Statistical significance is indicated by *<0.05, **<0.01, ***<0.001 as determined by One-Way ANOVA. […]

NC(=O)c1c(N)n(C(=O)c2ccc(F)cc2)c2ccccc12 [Compound 999, 2-amino-1-[(4-fluorophenyl)carbonyl]-1H-indole-3-carboxamide]
inhibition of CLK2 (CLK2): lower than 40% | inhibition of FGFR1 (FGFR1): lower than 40% | selectivity for CK1δ when compared with other kinases (CK1δ): significant and selective inhibition for CK1δ | inhibition of CK1g1 (CK1g1): lower than 40% | inhibition of PKCb2 (PKCb2): lower than 40% | inhibition of CDK5/p25 (CDK5/p25): lower than 40% | inhibition of ABL2/ARG (ABL2/ARG): lower than 40% | inhibition of PIM3 (PIM3): lower than 40% | inhibition of ROCK1 (ROCK1): lower than 40% | inhibition of HGK/MAP4K4 (HGK/MAP4K4): lower than 40% | inhibition of LCK (LCK): lower than 40% | inhibition of c-SRC (c-SRC): lower than 40% | inhibition of KDR/VEGFR2 (KDR/VEGFR2): lower than 40% | inhibition of MSK1/RPS6KA5 (MSK1/RPS6KA5): lower than 40% | inhibition of PKCa (PKCa): lower than 40% | inhibition of PDK1/PDPK1 (PDK1/PDPK1): lower than 40% | inhibition of GSK3b (GSK3b): lower than 40% | inhibition of CK1g2 (CK1g2): lower than 40%

COc1cc(OC)c(C=C2C(O)=Nc3ccccc32)c(OC)c1 [IC261]
levels of Tau phosphorylation at key pathogenic sites [1]: reduced

Nc1nccc(-c2c(-c3ccc(F)cc3)ncn2C2CCCCC2)n1 [PF670462, reference compound]
detectable levels of total Tau [2]: marginally less total Tau | detectable level of pT231 in Tau protein [3]: reduced the detectable level of pT231 | effect on the cell viability of SH-SY5Y-TMHT cells (SH-SY5Y-TMHT cells): significant protective effect
